Results taken from ChEMBL document CHEMBL2429761, “Discovery of ML314, a Brain Penetrant Non-Peptidic β-Arrestin Biased Agonist of the Neurotensin NTR1 Receptor” (ACS Med Chem Lett, 2013).

How the values were obtained:
[1] = biological target: Neurotensin receptor type 2 (Homo sapiens, UniProt O95665); assay: Agonist activity at NTR2 (unknown origin) expressed in human U2OS cells coexpressing beta-arrestin by GFP reporter gene assay; assay type: cell-based
[2] = biological target: G-protein coupled receptor 35 (Homo sapiens, UniProt Q9HC97); assay: Agonist activity at GPR35 (unknown origin) expressed in human U2OS cells coexpressing beta-arrestin by GFP reporter gene assay; assay type: cell-based
[3] = biological target: T1, Neurotensin receptor type 1 (Homo sapiens, UniProt P30989); assay: Agonist activity at NTR1 (unknown origin) expressed in human U2OS cells coexpressing beta-arrestin by GFP reporter gene assay; assay type: cell-based
[4] = biological target: T1, Neurotensin receptor type 1; assay: Agonist activity at NTR1 (unknown origin) expressed in CHO cells assessed as stimulation of calcium flux relative to neurotensin (8 to 13); assay type: functional, cell-based
[5] = biological target: T1, Neurotensin receptor type 1; assay: Agonist activity at NTR1 (unknown origin) expressed in CHOK1 cells by beta-arrestin assay; assay type: cell-based, CHO-K1
[6] = biological target: T1, Neurotensin receptor type 1
Description: Displacement of [125I]-neurotensin from NTR1 in HUVEC after 1 hr by gamma counting analysis

[7] = biological target: T1, Neurotensin receptor type 1; assay: Antagonist activity at NTR1 (unknown origin) expressed in human U2OS cells coexpressing beta-arrestin assessed as inhibition of ML314-induced effect by GFP reporter gene assay

Chain of G-protein coupled receptor 35 (Q9HC97 whole entry): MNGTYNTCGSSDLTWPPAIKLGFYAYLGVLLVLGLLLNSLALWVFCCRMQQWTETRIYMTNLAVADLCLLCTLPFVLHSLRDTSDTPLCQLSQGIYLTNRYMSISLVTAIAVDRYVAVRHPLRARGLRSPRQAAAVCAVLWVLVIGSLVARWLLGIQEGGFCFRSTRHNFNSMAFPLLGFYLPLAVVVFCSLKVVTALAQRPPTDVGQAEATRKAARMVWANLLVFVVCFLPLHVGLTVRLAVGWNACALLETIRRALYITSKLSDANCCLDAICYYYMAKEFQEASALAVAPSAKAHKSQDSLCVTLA
Chain of Neurotensin receptor type 2 (O95665 whole entry): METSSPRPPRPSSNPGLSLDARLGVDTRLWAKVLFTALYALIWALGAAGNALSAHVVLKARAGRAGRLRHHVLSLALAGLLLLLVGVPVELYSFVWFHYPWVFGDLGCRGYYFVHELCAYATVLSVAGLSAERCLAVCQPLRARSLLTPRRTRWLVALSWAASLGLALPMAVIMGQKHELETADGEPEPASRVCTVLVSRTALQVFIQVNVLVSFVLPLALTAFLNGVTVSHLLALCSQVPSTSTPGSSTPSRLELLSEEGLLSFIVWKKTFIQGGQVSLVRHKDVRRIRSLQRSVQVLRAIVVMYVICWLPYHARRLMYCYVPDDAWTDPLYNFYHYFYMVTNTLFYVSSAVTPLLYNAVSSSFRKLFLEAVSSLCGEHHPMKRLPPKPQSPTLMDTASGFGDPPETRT
T1 sequence (P30989 whole entry): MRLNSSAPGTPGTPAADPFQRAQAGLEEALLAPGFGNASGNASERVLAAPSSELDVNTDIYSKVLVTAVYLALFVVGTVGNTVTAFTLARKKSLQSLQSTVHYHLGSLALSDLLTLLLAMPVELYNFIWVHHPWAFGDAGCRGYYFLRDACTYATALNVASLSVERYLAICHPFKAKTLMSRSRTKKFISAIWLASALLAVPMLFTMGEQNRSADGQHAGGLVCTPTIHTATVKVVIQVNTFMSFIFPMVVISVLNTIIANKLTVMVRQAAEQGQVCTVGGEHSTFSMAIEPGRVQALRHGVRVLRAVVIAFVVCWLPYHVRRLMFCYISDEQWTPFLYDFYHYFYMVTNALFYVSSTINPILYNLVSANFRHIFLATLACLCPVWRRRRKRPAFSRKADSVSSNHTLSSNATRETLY

Compound	EC50 [1] [µM]	EC50 [2] [µM]	EC50 [3] [µM]	Emax [4] [%]	EC50 [5] [µM]	IC50 [6] [µM]	IC50 [7] [µM]
COc1cc2nc(C3CCC3)nc(N3CCN(c4ccccc4C)CC3)c2cc1OC	> 80	> 40					
CCOc1cc2c(N3CCN(c4ccccc4F)CC3)nc(-c3ccccc3)nc2cc1OC	> 80	> 40	> 80				
COc1cc2nc(C3CC3)nc(N3CCN(Cc4ccc(C)cc4)CC3)c2cc1OC	> 80	> 40					
COc1cc2nc(CCN3CCN(c4ccccc4OC)CC3)nc(N3CCN(c4ccccc4OC)CC3)c2cc1OC	> 80	> 40					
COc1ccc2nc(C3CC3)nc(N3CCN(c4ccccc4OC)CC3)c2c1	> 80	> 40					
COc1cc2nc(Cc3ccccc3)nc(N3CCN(c4ccccc4OC)CC3)c2cc1OC	> 80	> 40	14				
CCCc1nc(N2CCN(c3ccccc3OC)CC2)c2cc(OC)c(OC)cc2n1	> 80	> 40	17				
CCOc1ccccc1N1CCN(c2nc(C3CC3)nc3cc(OC)c(OC)cc23)CC1	> 80	> 40					
COc1cc2nc(C3CC3)nc(N3CCN(C(=O)c4ccccc4)CC3)c2cc1OC	> 80	> 40					
COc1cc2nc(C3CCC3)nc(N3CCN(c4ccccc4Cl)CC3)c2cc1OC	> 80	> 40	12				
COc1cccc(OC)c1-c1cc(C(=O)N[C@@H](CC(C)C)C(=O)O)nn1-c1ccnc2cc(Cl)ccc12			0.75	63	> 33		
COc1cc2nc(CC3CC3)nc(N3CCN(c4ccccc4OC)CC3)c2cc1OC	> 80	> 40	14				
COc1cc2nc(-c3ccccc3)nc(N3CCN(c4ccccc4OC)CC3)c2cc1OC	> 80	> 40					
COc1cc2nc(C3CC3)nc(N3CCN(c4ccccc4Cl)CC3)c2cc1OC	> 80	> 40					
COc1cc2nc(C3CCC3)nc(N3CCN(c4ccccc4F)CC3)c2cc1OC	> 80	> 40	18				
CCOc1cc2c(N3CCN(c4ccccc4)CC3)nc(-c3ccccc3)nc2cc1OC	> 80	> 40	> 80				
COc1cc2nc(C3CC3)nc(N3CCN(S(=O)(=O)c4ccccc4)CC3)c2cc1OC	> 80	> 40	> 80				
COc1cc2nc(CC(C)C)nc(N3CCN(c4ccccc4OC)CC3)c2cc1OC	> 80	> 40					
COc1cc2nc(C3CCCC3)nc(N3CCN(c4ccccc4OC)CC3)c2cc1OC	> 80	> 40					
C=Cc1nc(N2CCN(c3ccccc3OC)CC2)c2cc(OC)c(OC)cc2n1	> 80	> 40					
COc1ccc2c(N3CCN(c4ccccc4OC)CC3)nc(C3CCC3)nc2c1	> 80	> 40					

Compound	EC50 [1] [µM]	EC50 [2] [µM]	EC50 [3] [µM]	Emax [4] [%]	EC50 [5] [µM]	IC50 [6] [µM]	IC50 [7] [µM]
COc1cc2ncnc(N3CCN(c4ccccc4OC)CC3)c2cc1OC	> 80	> 40	> 80				
COc1cc2nc(C3CCC3)nc(N3CCN(c4ccccn4)CC3)c2cc1OC	> 80	> 40	26				
COc1ccc2nc(C3CCC3)nc(N3CCN(c4ccccc4OC)CC3)c2c1	> 80	> 40					
COc1cc2nc(C3CC3)nc(N3CCNCC3)c2cc1OC	> 80	> 40	> 80				
COc1cc2nc(-c3ccccc3)nc(N3CCN(c4ccccc4F)CC3)c2cc1OC	> 80	> 40	> 80				
COc1cc2nc(-c3ccccc3)nc(N3CCN(c4ccccc4)CC3)c2cc1OC	> 80	> 40	> 80				
COc1ccccc1CN1CCN(c2nc(C3CC3)nc3cc(OC)c(OC)cc23)CC1	> 80	> 40					
COc1cc2nc(CCN(C)C)nc(N3CCN(c4ccccc4OC)CC3)c2cc1OC	> 80	> 40	> 80				
CCOc1cc2c(N3CCN(c4ccccc4OC)CC3)nc(-c3ccccc3)nc2cc1OC	> 80	> 40	> 80				
CCc1nc(N2CCN(c3ccccc3OC)CC2)c2cc(OC)c(OC)cc2n1	> 80	> 40					
COc1ccccc1N1CCN(c2nc(C3CCC3)nc3ccccc23)CC1	> 80	> 40	23				
COc1cc2nc(-c3ccccc3)nc(N3CCN(c4ccccc4Cl)CC3)c2cc1OC	> 80	> 40	> 80				
COc1cc2nc(-c3ccccc3)nc(N3CCN(c4ccc(F)cc4)CC3)c2cc1OC	> 80	> 40					
COc1cc2nc(C(C)C)nc(N3CCN(c4ccccc4OC)CC3)c2cc1OC	> 80	> 40	8				
CCOc1cc2c(N3CCN(c4ccccc4[N+](=O)[O-])CC3)nc(-c3ccccc3)nc2cc1OC	> 80	> 40	75				
COc1cc2nc(C)nc(N3CCN(c4ccccc4OC)CC3)c2cc1OC	> 80	> 40	> 80				
COc1ccccc1N1CCN(c2nc(C3CCC3)nc3cc4c(cc23)OCO4)CC1	> 80	> 40					
COc1cc2nc(C3CCC3)nc(N3CCN(c4ccccc4OC)CC3)c2cc1OC	> 80	> 40					
COc1cccc(OC)c1-c1cc(C(=O)NC2(C(=O)O)C3CC4CC(C3)CC2C4)nn1-c1ccc(C(=O)N(C)CCCN(C)C)cc1C(C)C (stereo unspecified)						0.00024	0.0501
COc1cc2nc(C3CCC3)nc(N3CCN(c4ccccc4)CC3)c2cc1OC	> 80	> 40	12				
COc1cc2nc(C3CC3)nc(N3CCN(C(=O)c4ccccc4OC)CC3)c2cc1OC	> 80	> 40					
